The results in this text go back to patent US20260102407A1, “TREATMENT METHODS” (priority 2020, published 2026).

One data set deals with BAEC. The data set can be described thus: Endothelial dual chamber migration assay toward VEGF-A165. The class given is cell-based, bovine. The conditions noted are these: 1 μM; Transwell; 10% FBS and 50 ng/ml VEGF-A165 in lower chamber; 24 h. The procedure: Endothelial dual chamber migration assay. BAEC (6×10^3 cells/well) suspended in DMEM supplemented with 10% FBS were seeded into the upper chamber of 24-well plates fitted with Millicell cell culture inserts (cat. PI8P01250, Millipore). After 48 h, the medium was changed to DMEM supplemented with 0.01% FBS and the cells were incubated for 48 h. Compounds prepared in DMEM containing 0.01% FBS were added to the upper chamber. VEGF-A165 (50 ng/ml, Sigma, cat. V7259) in medium containing 10% FBS was added to the lower chamber. After 24 h, medium from the upper chamber was removed and a cotton swab was used to remove non-migrated cells and excess liquid. The insert was placed in 70% ethanol for 10 min to allow cell fixation and membranes were dried for 10-15 min. Filters were excised and placed on slides. Mounting medium (Fluoroshield™ with DAPI, Sigma, cat. 6057) was added and specimens were visualized using an EVOS FL microscope.

Another data set concerns CD31. In words: Matrigel plug assay, CD31 staining. The data set is classed as in vivo. The following applies: C57BL/6 mice; 2.5 mg/mouse in plug with VEGF-A165 and heparin; 7 days. How it is done: Matrigel plug assay. Matrigel (500 μl) containing VEGF-A165 (100 ng/ml), heparin (10U) and BT2 or BT3 (2.5 mg/mouse) or its vehicle (saline containing 0.01% DMSO and 0.5% Tween 80) was injected subcutaneously into the left flanks of male 8 week-old C57BL/6 mice. After 7d the mice were sacrificed by CO2 asphyxiation and the plugs carefully removed. Formalin-fixed paraffin embedded sections were prepared from Matrigel plugs for immunohistological assessment. Heat-induced epitope retrieval was applied to all deparaffinized sections (4 μm Superfrost slides) in citrate buffer, pH 6 for 5 min at 110° C. Immunostaining for all groups with a given antibody was performed simultaneously and development time was identical. […]
Slides were scanned using an Aperio ScanScope XT slide scanner (Leica Biosystems, Mt Waverley, Vic Australia) and images captured using ImageScope software (Leica Biosystems). Positive intraplug staining was assessed using Image-Pro Plus software (Cybernetics, Bethesda, MD) in 5-12 randomly selected fields of view for each plug photographed under 10× (CD31), 20× (VCAM-1) and 40× (FosB) objectives and expressed as integrated optical density (IOD, the product of calibrated intensity (optical density) and area, i.e. IOD=intensity (mean)×area) (Media Cybernetics) (Liu, H., et al., Sci Rep 6, 21319 (2016)). […]

The nature of data set [1]: BT2 formulation analysis by RRLC-MS/MS and LC/MS (stability). The class given is physicochemical. The following applies: for discrepancy in BT2 content: 6 weeks storage at 22° C. How it is done: BT2 formulation analysis using RRLC-MS/MS. A rapid resolution liquid chromatography/tandem mass spectrometry (RRLC-MS/MS) method was developed under GLP by Iris Pharma using an Agilent 1200 Triple Quad G6410B to determine BT2 content in heat-treated or non-heat treated BT2 formulations at 1 week (T1 week) or 6 weeks (T6 weeks) after preparation at room temperature. The formulations were heat (H)-treated (tubes placed in a 100° C. water bath for 10 min) or non-heat treated sonicated formulations of BT2 in saline containing 0.5% Tween 80 and 0.01% DMSO). Standard curves were constructed with 8 concentrations between the lower limit of quantification (LLOQ) and the upper limit of quantification (ULOQ). Evaluations were performed on 3 preparations at the same dilution. Chromatograms were integrated using MassHunter software. For BT2 content analysis (T1 week and T6 weeks), calculation of mean, SD, CV (%) and bias (%) were performed as follows: For T1, the theoretical concentration (i.e. the weighed/formulated material supplied) was used as reference to calculate the bias (%) of each preparation containing the test sample:
Standard curves were fitted using Excel® version 2011. For each run, bias on back-calculated concentration of the standard curve and QC was determined, with back-calculated concentrations of the calibration standards being set within ±15% of the theoretical value, except for the LLOQ for which it was set within ±20%. At least 75% of the calibration standards, with a minimum of six, must have had to fulfil this criterion and the coefficient of determination (r^2) was set at ≥0.98.
BT2 formulation analysis using liquid chromatography mass spectrometry (LC/MS). DMSO (100 μl) and samples (˜50 μl) were combined along with formic acid (1 μl). These solutions (10 μl) were further diluted with H2O:CH3CN (1:1) 0.1% formic acid (90 μl) for LC/MS analysis. Samples were separated by UPLC using an HPG-3400RS UPLC pump, autosampler and column compartment system (Thermo Scientific, CA). Samples (0.1 μl) were loaded onto a Hypersil Gold aQ column (2.1×50 mm) containing 1.9μ media (Thermo Scientific). Compounds were eluted using a linear gradient of H2O:CH3CN with A containing H2O (0.1% formic acid) and B containing H2O:CH3CN (1:4, 0.1% formic acid). The gradient was: T=0 min 2% B, T=20 min 75% B, T=23 min 95% B, T=25 min, 95% B, T=25.2 min 2% B, T=30 min, 2% at 200 μl/min over 30 min. The column oven was heated to 45° C. Positive ions were generated by electrospray and the QExactive Plus mass spectrometer (Thermo Fisher, Bremen, Germany) operated in data dependent acquisition mode (DDA). The heated electrospray source (HESI) was used with a high voltage 3.8 kV applied; a vaporizer temp of 250° C.; sheath gas 20; aux gas 5 and the heated capillary set to T=290° C. […]

As for `CCOC(=O)Nc1ccc2c(c1)C(=O)N(CC)c1ccccc1O2` [BT2, (10-ethyl-11-oxo-10,11-dihydro-dibenzo[b,f][1,4]oxazepin-2-yl)-carbamic acid ethyl ester], in the data set with BAEC, the “migration of BAEC toward VEGF-A165” value is listed as “inhibited migration”. For the same compound, the “new blood vessel formation (CD31 staining) in Matrigel plugs” value in the data set with CD31 is “suppressed new blood vessel formation”. In addition, in data set [1] (autoclaved (121° C., 15 psi, 20 min), 4 months storage at 22° C., LC/MS), the “stability of formulation after autoclaving” value was “remained stable”. Also, the “discrepancy in BT2 content” value is 1% in data set [1] (heat-treated formulation (100° C. for 10 min), RRLC-MS/MS) and 0.2% in data set [1] (non-heat treated formulation, RRLC-MS/MS). In addition, the “degradation of stored formulation” value in data set [1] (heat-treated or not, storage up to 16 months, RRLC-MS/MS) was “no loss in biological efficacy or degradation”.

Consider `CCN1C(=O)c2cc(N)ccc2Oc2ccccc21` [BT3, 2-amino-10-ethyldibenzo[b,f][1,4]oxazepin-11 (10H)-one], for which, in the data set with BAEC, the “migration of BAEC toward VEGF-A165” value is reported as “neither BT3, nor PD98059 (allosteric MEK inhibitor), imatinib (tyrosine kinase inhibitor) or tofacitinib (Janus kinase inhibitor) had an inhibitory effect”. Besides, the “new blood vessel formation (CD31 staining) in Matrigel plugs” value in the data set on CD31 is recorded as “no effect”.
